Laboratory results taken from ChEMBL document CHEMBL5214914, “Novel strategies to improve tumour therapy by targeting the proteins MCT1, MCT4 and LAT1” (Eur J Med Chem, 2021).

Assays:
Raji = assay: Cytotoxicity against human Raji cells; assay type: functional, cell-based
[1] = Half life in human; assay type: ADME
[2] = Drug metabolism in Sprague-Dawley rat plasma at 10 uM measured after 8 hrs; assay type: ADME, cell-free, Sprague-Dawely; details: read-out: Drug metabolism
[3] = molecular target: T1, Large neutral amino acids transporter small subunit 1 (Homo sapiens, UniProt Q01650); assay: Inhibition of LAT1 in human MCF7 cells assessed as inhibition of leucine uptake; assay type: cell-based
MCF7 = assay: Antiproliferative activity against human MCF7 cells assessed as inhibition of cell growth; assay type: functional, cell-based
MIA PaCa-2 = assay: Antitumor activity against human MIA PaCa-2 cells xenografted in ip dosed mouse assessed as prolongation of animal's mean life span; assay type: functional
BXPC-3 = assay: Antitumor activity against human BXPC-3 cells xenografted in ip dosed mouse assessed as prolongation of animal's mean life span; assay type: functional
[4] = molecular target: T2, Monocarboxylate transporter 1 (Rattus norvegicus, UniProt P53987); assay: Inhibition of MCT1 in rat RBE4 cells assessed as reduction in [14C]lactate uptake measured after 15 mins by liquid scintillation counting analysis; assay type: cell-based
T2 sequence (P53987 whole entry): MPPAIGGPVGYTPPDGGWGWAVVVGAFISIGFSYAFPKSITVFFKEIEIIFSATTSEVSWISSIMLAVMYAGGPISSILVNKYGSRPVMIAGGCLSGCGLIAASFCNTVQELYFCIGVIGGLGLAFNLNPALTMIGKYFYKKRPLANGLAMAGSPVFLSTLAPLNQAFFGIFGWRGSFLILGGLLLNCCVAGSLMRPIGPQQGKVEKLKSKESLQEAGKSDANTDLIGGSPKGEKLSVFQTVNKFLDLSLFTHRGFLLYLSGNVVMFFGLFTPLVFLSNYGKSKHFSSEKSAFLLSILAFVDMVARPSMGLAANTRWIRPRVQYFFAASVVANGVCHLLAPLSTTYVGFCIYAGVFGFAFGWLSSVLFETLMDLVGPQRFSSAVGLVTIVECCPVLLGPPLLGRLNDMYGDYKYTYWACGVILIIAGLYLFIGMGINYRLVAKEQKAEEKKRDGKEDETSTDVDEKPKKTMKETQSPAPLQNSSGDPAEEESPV

[5] = molecular target: T1, Large neutral amino acids transporter small subunit 1; assay: Inhibition of LAT1 (unknown origin) expressed in S2 cells assessed as inhibition of [14C]phenylalanine uptake at 50 uM; assay type: cell-based
[6] = molecular target: T1, Large neutral amino acids transporter small subunit 1; assay: Inhibition of LAT1 (unknown origin) expressed in astrocytes assessed as inhibition of [14C]phenylalanine uptake at 50 uM; assay type: cell-based; details: Astrocyte

T1 sequence (Q01650 whole entry): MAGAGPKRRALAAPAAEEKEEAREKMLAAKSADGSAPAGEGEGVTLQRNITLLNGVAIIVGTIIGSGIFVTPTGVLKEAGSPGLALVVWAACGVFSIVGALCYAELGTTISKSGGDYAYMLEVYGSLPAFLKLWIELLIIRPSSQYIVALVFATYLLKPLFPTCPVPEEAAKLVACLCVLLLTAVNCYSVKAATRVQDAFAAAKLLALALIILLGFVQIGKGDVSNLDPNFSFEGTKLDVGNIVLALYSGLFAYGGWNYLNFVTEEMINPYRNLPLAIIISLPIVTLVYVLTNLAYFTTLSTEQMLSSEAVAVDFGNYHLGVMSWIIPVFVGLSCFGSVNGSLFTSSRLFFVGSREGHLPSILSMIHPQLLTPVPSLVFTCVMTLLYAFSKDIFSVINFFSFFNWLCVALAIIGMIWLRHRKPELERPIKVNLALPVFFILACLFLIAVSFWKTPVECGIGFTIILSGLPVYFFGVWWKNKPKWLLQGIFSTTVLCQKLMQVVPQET

Q: For CC(C)Cc1nn(C)c(=O)c2c(SCCCO)n(Cc3cc(NCCCCCNC(=O)[C@H](N)CCC(N)=O)nc4ccccc34)cc12, which EC50 (Raji) is on record?
A: Its EC50 is 0.8 nM.

Q: Which half-life [1] does the source give for Nc1ccn([C@@H]2O[C@H](CO)[C@@H](O)C2(F)F)c(=O)n1 [GEMCITABINE] here?
A: Its half-life is 9 min.

Q: For C[C@@H](O)[C@H](Nc1ccn([C@@H]2O[C@H](CO)[C@@H](O)C2(F)F)c(=O)n1)C(=O)O, which metabolised at 8 h, 10 µM [2] is on record?
A: Its metabolised at 8 h, 10 µM is 20%.

Q: What does the source list for CNC(=O)COc1ccc(C2=C(C#N)C3N=C4C=CC=CC4N3C(NC(=O)c3cccc(C[C@H](N)C(=O)O)c3)=C2C#N)cc1 (stereo not given in full)?
A: IC50 [3]: 18200 nM; IC50 (MCF7): 124000 nM

Q: With CC(C)Cc1nn(C)c(=O)c2c(SCCCO)n(Cc3cnc(NCCCCCN)c4ccccc34)cc12 as the compound, how does the EC50 (Raji) read?
A: The EC50 was 0.8 nM.

Q: With Nc1cc(COc2c(Cl)cc(CC(N)C(=O)O)cc2Cl)c2oc(-c3ccccc3)nc2c1 (stereo not given) as the compound, how does the ILS (MIA PaCa-2) read?
A: Its ILS is 14 days.

Q: And the ILS (BXPC-3)?
A: Its ILS is 10 days.

Q: Which IC50 [4] does the source give for N#C/C(=C\c1ccc(O)cc1)C(=O)O [alpha-CYANO-4-HYDROXYCINNAMIC ACID] here?
A: The IC50 was 281 nM.

Q: Which EC50 (Raji) does the source give for CC(C)Cc1nn(C)c(=O)c2c(SCCCO)n(Cc3ccc(C#CCCCOc4ccc(C[C@H](N)C(=O)O)cc4)c4ccccc34)cc12 here?
A: Its EC50 is 0.8 nM.

Q: Which IC50 [4] does the source give for CC(C)c1ccc(/C=C(\C#N)C(=O)O)cc1 here?
A: Its IC50 is 66 nM.

Q: With CC(C)Cc1nn(C)c(=O)c2c(SCCCO)n(Cc3cnc(NCCCCCNC(=O)[C@H](N)CCC(N)=O)c4ccccc34)cc12 as the compound, how does the EC50 (Raji) read?
A: The EC50 was 0.16 nM.

Q: With NC(Cc1cc(I)c(Oc2ccc(O)c(I)c2)c(I)c1)C(=O)O (stereo not given) as the compound, how does the inhibition [5] read?
A: The inhibition was 90%.

Q: And the inhibition [6]?
A: The inhibition was 90%.

Q: With CC(C)Cc1nn(C)c(=O)c2c(SCCCO)n(Cc3ccc(C#CCCCNC(=O)[C@H](N)CCC(N)=O)c4ccccc34)cc12 as the compound, how does the EC50 (Raji) read?
A: Its EC50 is 4 nM.
